Like-named read-outs stand apart in the source and are kept apart here.
Tests used:
Zika virus [1] = assay: Inhibition of Zika virus replication in infected Vero cell culture (MOI 1, virus yield by TCID50); assay type: cell-based; conditions: for Zika virus replication during infections in cell culture: Vero cells, MOI of 1, drug added after 1 hour adsorption, 24 hours post infection
Text: • Figure 1. Schematic representation of flavivirus life cycle and steps inhibited by eeyarestatin I. The antiviral effect observed during treatment with eeyarestatin I can be due to the inhibition of at least three different steps of the life cycle (indicated with a red star and highlighted in red letters). A, Inhibition of the valosin-containing protein / p97 ATPase (VCP/p97) and/or ERAD pathway indirectly affects virus replication on ER factories. B, Inhibition of VCP/p97 affects virus uncoating. C, Novel mechanism of action described in this invention: eeyarestatin I reduces virus particle infectivity before entering the cell (discovery patented here). • Figure 2. Cell viability after exposure to VCP/p97 inhibitors. Viability of Vero (African green monkey kidney fibroblasts) cells treated with VCP/p97 inhibitors xanthohumol (XAN) and eeyarestatin I (EEY) during 24 (A) or 48 hours (B). Cellular viability is represented as the percentage of metabolically active cells relative to mock-treated cells (CellTiter-Blue Cell Viability Assay, Promega). There are given the 50% cytotoxicity concentration (CC50) values for each drug and exposure time tested. • Figure 3. VCP/p97 drugs Xanthohumol and eeyarestatin I inhibit virus replication in cell culture (Vero cells). Virus titres measured by 50% tissue culture infectious dose (TCID50) in the supernatants of Zika virus-infected cells. A, Schematic representation of the assay. A monolayer of Vero cells was inoculated with Zika virus at a multiplicity of infection (MOI) of 1 TCID50 per cell (input). After 1 hour of incubation at 37°C, to allow virus adsorption, the supernatant was removed, the cells washed, and fresh media containing each drug at the concentrations indicated was added. At 24 hours post infection the cellular supernatants were collected (virus progeny) and the virus yields quantified by TCID50 (virus titration). B-C, Changes in virus titres and cell viability in cultures treated with increasing concentrations of eeyarestatin I (B) and xanthohumol (C) for 24 hours. […]

Usutu virus = assay: Virucidal activity: cell-free incubation of virus sample with drug at 37°C, then TCID50 titration; conditions: for virucidal activity (loss of viral infectivity): incubation at 37°C in the absence of cells, 6 µM over time
Text: (§1) • Figure 1. Schematic representation of flavivirus life cycle and steps inhibited by eeyarestatin I. The antiviral effect observed during treatment with eeyarestatin I can be due to the inhibition of at least three different steps of the life cycle (indicated with a red star and highlighted in red letters). A, Inhibition of the valosin-containing protein / p97 ATPase (VCP/p97) and/or ERAD pathway indirectly affects virus replication on ER factories. B, Inhibition of VCP/p97 affects virus uncoating. C, Novel mechanism of action described in this invention: eeyarestatin I reduces virus particle infectivity before entering the cell (discovery patented here). • Figure 2. Cell viability after exposure to VCP/p97 inhibitors. Viability of Vero (African green monkey kidney fibroblasts) cells treated with VCP/p97 inhibitors xanthohumol (XAN) and eeyarestatin I (EEY) during 24 (A) or 48 hours (B). Cellular viability is represented as the percentage of metabolically active cells relative to mock-treated cells (CellTiter-Blue Cell Viability Assay, Promega). There are given the 50% cytotoxicity concentration (CC50) values for each drug and exposure time tested. • Figure 3. VCP/p97 drugs Xanthohumol and eeyarestatin I inhibit virus replication in cell culture (Vero cells). Virus titres measured by 50% tissue culture infectious dose (TCID50) in the supernatants of Zika virus-infected cells. A, Schematic representation of the assay. A monolayer of Vero cells was inoculated with Zika virus at a multiplicity of infection (MOI) of 1 TCID50 per cell (input). After 1 hour of incubation at 37°C, to allow virus adsorption, the supernatant was removed, the cells washed, and fresh media containing each drug at the concentrations indicated was added. At 24 hours post infection the cellular supernatants were collected (virus progeny) and the virus yields quantified by TCID50 (virus titration). B-C, Changes in virus titres and cell viability in cultures treated with increasing concentrations of eeyarestatin I (B) and xanthohumol (C) for 24 hours. The 50% inhibitory concentration (IC50) and the selectivity index (SI) values are provided for each drug. […] A, Schematic representation of the assay. The virus sample is directly incubated at 37°C in the presence of increasing concentrations of drugs. The treated sample is collected at different time points and directly titrated by TCID50. B-D Decrease in infectivity observed in a virus sample treated with amantadine (AMA), xanthohumol (XAN) or eeyarestatin I (EEY) and compared to a virus sample untreated (no drug) or mock-treated with vehicle (DMSO). B, Zika virus was incubated during 4 hours at 37°C in the presence of EEY (10 µM), XAN (10 µM), AMA (800 µM) or in the absence of drugs. C, Changes in the infectivity along time of a Zika virus sample incubated at 37°C in the presence of 6 µM EEY or XAN, or in the absence of drugs (No drug, DMSO). D, Changes in Usutu virus infectivity along time for a sample incubated at 37°C in the presence of 6 µM EEY or XAN, or in the absence of drugs (No drug, DMSO). • Figure 5. Eeyarestatin I exerts virucidal activity in a dose-dependent manner. […] Eeyarestatin I half maximum inhibitory concentration (IC50) is <1 µM for both Zika (A) and Usutu (B) viruses. • Figure 6. […] A, Schematic representation of the procedure to select adapted virus. In each virus passage, 100 µl of neat virus from the previous passage are inoculated to a monolayer of 10^5 Vero cells. After cell wash, the monolayer is incubated at 37°C and 5% CO2 in 1 ml of media (DMEM, 10% foetal bovine serum, 100 units penicillin-streptomycin) in the presence (EEY-adapted) or absence (untreated) of 5 µM eeyarestatin I. At 48 hours post-infection, the cellular supernatants are collected, titrated, and employed for the following virus passage. This process is repeated for a total of nine viral transfers. […]

Zika virus [2] = assay: as above; conditions: for virucidal activity (loss of viral infectivity): incubation at 37°C in the absence of cells, EEY 10 µM, XAN 10 µM, AMA 800 µM for 4 hours, or 6 µM over time
Text: as §1

Vero cells = assay: Cell viability of Vero cells after exposure to VCP/p97 inhibitors (CellTiter-Blue Cell Viability Assay); assay type: cell-based, African green monkey
Text: • Figure 1. Schematic representation of flavivirus life cycle and steps inhibited by eeyarestatin I. The antiviral effect observed during treatment with eeyarestatin I can be due to the inhibition of at least three different steps of the life cycle (indicated with a red star and highlighted in red letters). A, Inhibition of the valosin-containing protein / p97 ATPase (VCP/p97) and/or ERAD pathway indirectly affects virus replication on ER factories. B, Inhibition of VCP/p97 affects virus uncoating. C, Novel mechanism of action described in this invention: eeyarestatin I reduces virus particle infectivity before entering the cell (discovery patented here). • Figure 2. Cell viability after exposure to VCP/p97 inhibitors. Viability of Vero (African green monkey kidney fibroblasts) cells treated with VCP/p97 inhibitors xanthohumol (XAN) and eeyarestatin I (EEY) during 24 (A) or 48 hours (B). Cellular viability is represented as the percentage of metabolically active cells relative to mock-treated cells (CellTiter-Blue Cell Viability Assay, Promega). […] Virus titres measured by 50% tissue culture infectious dose (TCID50) in the supernatants of Zika virus-infected cells. […] At 24 hours post infection the cellular supernatants were collected (virus progeny) and the virus yields quantified by TCID50 (virus titration). […]

[3] = system: Zika virus passaged during nine consecutive transfers (p9); assay: Virucidal activity on Zika virus populations after nine passages with or without 5 µM eeyarestatin I (resistance selection)
Text: • Figure 1. Schematic representation of flavivirus life cycle and steps inhibited by eeyarestatin I. The antiviral effect observed during treatment with eeyarestatin I can be due to the inhibition of at least three different steps of the life cycle (indicated with a red star and highlighted in red letters). A, Inhibition of the valosin-containing protein / p97 ATPase (VCP/p97) and/or ERAD pathway indirectly affects virus replication on ER factories. B, Inhibition of VCP/p97 affects virus uncoating. C, Novel mechanism of action described in this invention: eeyarestatin I reduces virus particle infectivity before entering the cell (discovery patented here). • Figure 2. Cell viability after exposure to VCP/p97 inhibitors. Viability of Vero (African green monkey kidney fibroblasts) cells treated with VCP/p97 inhibitors xanthohumol (XAN) and eeyarestatin I (EEY) during 24 (A) or 48 hours (B). Cellular viability is represented as the percentage of metabolically active cells relative to mock-treated cells (CellTiter-Blue Cell Viability Assay, Promega). There are given the 50% cytotoxicity concentration (CC50) values for each drug and exposure time tested. • Figure 3. VCP/p97 drugs Xanthohumol and eeyarestatin I inhibit virus replication in cell culture (Vero cells). Virus titres measured by 50% tissue culture infectious dose (TCID50) in the supernatants of Zika virus-infected cells. A, Schematic representation of the assay. A monolayer of Vero cells was inoculated with Zika virus at a multiplicity of infection (MOI) of 1 TCID50 per cell (input). After 1 hour of incubation at 37°C, to allow virus adsorption, the supernatant was removed, the cells washed, and fresh media containing each drug at the concentrations indicated was added. At 24 hours post infection the cellular supernatants were collected (virus progeny) and the virus yields quantified by TCID50 (virus titration). B-C, Changes in virus titres and cell viability in cultures treated with increasing concentrations of eeyarestatin I (B) and xanthohumol (C) for 24 hours. The 50% inhibitory concentration (IC50) and the selectivity index (SI) values are provided for each drug. […] A, Schematic representation of the assay. The virus sample is directly incubated at 37°C in the presence of increasing concentrations of drugs. The treated sample is collected at different time points and directly titrated by TCID50. B-D Decrease in infectivity observed in a virus sample treated with amantadine (AMA), xanthohumol (XAN) or eeyarestatin I (EEY) and compared to a virus sample untreated (no drug) or mock-treated with vehicle (DMSO). B, Zika virus was incubated during 4 hours at 37°C in the presence of EEY (10 µM), XAN (10 µM), AMA (800 µM) or in the absence of drugs. […]

[4] = cell-free incubation at 37°C, listed as Eeyarestatin I, read-out: IC50 (virucidal activity)
[5] = cell-free incubation at 37°C, read-out: IC50 (virucidal activity)

Compound	Zika virus replication during infections in cell culture (Zika virus [1])	selectivity index (ratio of CC50 and IC50) (Zika virus [1]; Zika virus replication in Vero cells)	virucidal activity (loss of viral infectivity) (Usutu virus)	virucidal activity (loss of viral infectivity) (Zika virus [2])	toxicity in cell culture (Vero cells; 5 µM eeyarestatin I)	CC50 (Vero cells; time = 24 hours, read-out: 50% toxicity for Vero cells (CC50)) [nM]	IC50 (Usutu virus; [4]) [nM]	IC50 (Usutu virus; [5]) [nM]	IC50 (Usutu virus; time = 4 hours, read-out: estimated IC50) [nM]	IC50 (Zika virus [2]; [4]) [nM]	IC50 (Zika virus [2]; [5]) [nM]	IC50 (Zika virus [2]; time = 4 hours, read-out: estimated inhibitory constant) [nM]	IC50 ([3]; EEY-adapted Zika virus p9 (nine passages in 5 µM eeyarestatin I), 37°C for 4 hours) [nM]	IC50 ([3]; adapted Zika virus population (passaged 9 times in the presence of eeyarestatin I)) [nM]	IC50 ([3]; untreated Zika virus p9 (nine passages without drug), 37°C for 4 hours) [nM]	IC50 ([3]; untreated Zika virus population (nine passages in the absence of drugs)) [nM]
COc1cc(O)c(CC=C(C)C)c(O)c1C(=O)/C=C/c1ccc(O)cc1 [xanthohumol, reference compound]	inhibit Zika virus replication	> 5	no virucidal activity	did not affect viral infectivity												
NC12CC3CC(CC(C3)C1)C2 [amantadine, reference compound]				did not affect viral infectivity												
CC1(C)C(N(O)C(=O)Nc2ccc(Cl)cc2)N(c2ccc(Cl)cc2)C(=O)N1CC(=O)N/N=C/C=C/c1ccc([N+](=O)[O-])o1 (centres unmarked) [eeyarestatin I]	inhibit Zika virus replication		inhibits Usutu virus infectivity	significant loss of infectivity	very modest toxicity	24000	< 1000	150	150	< 1000	590	< 600	130	130	310	310
